# Calls of active or inactive are those of the source. No cut-off for these calls is given here.
# Key:
# Cryptococcus neoformans [1] = assay: Effect on cell wall integrity in Cryptococcus neoformans XW252 cotransfected with mCherry-Nop1-Gfp mutant assessed as increase in nuclear translocation of Crz1 at 8 ug/ml after 90 mins by fluorescence microscopic analysis; type: functional; conditions: dose 8.0 µg/ml
# Candida albicans [2] = assay: Antifungal activity against Candida albicans ATCC SC5314 assessed as reduction in fungal growth incubated for 48 hrs by CLSI based broth microdilution method; type: functional
# Nakaseomyces glabratus [3] = assay: Antifungal activity against Candida glabrata BG2 assessed as reduction in fungal growth incubated for 48 hrs by CLSI based broth microdilution method; type: functional
# Aspergillus fumigatus [4] = assay: Antifungal activity against Aspergillus fumigatus AF293 assessed as reduction in fungal growth incubated for 48 hrs by CLSI based broth microdilution method; type: functional
# Cytochrome P450 2D6 = Cytochrome P450 2D6 (Homo sapiens, UniProt P10635); assay: Inhibition of CYP2D6 (unknown origin) relative to control; type: ADME
# Cytochrome P450 2C19 = Cytochrome P450 2C19 (Homo sapiens, UniProt P33261); assay: Inhibition of CYP2C19 (unknown origin) relative to control; type: ADME
# [5] = Stability in rat liver microsomes assessed as parent compound remaining after 30 mins; type: ADME, Microsome; conditions: liver microsomes, read-out: Stability
# [6] = Effective permeability by PAMPA method; type: ADME; conditions: read-out: Peff
# [7] = Stability in rat hepatocytes assessed as parent compound remaining incubated for 60 mins; type: ADME, cell-based, Hepatocyte; conditions: read-out: Stability
# [8] = Stability in rabbit hepatocytes assessed as parent compound remaining incubated for 60 mins; type: ADME, cell-based, Oryctolagus cuniculus, Hepatocyte; conditions: read-out: Stability
# HEK293 = assay: Cytotoxicity against human HEK293 cells upto 12.5 uM incubated for 24 hrs; type: cell-based; conditions: hek293, 24 h
# [9] = Cmax in Sprague-Dawley rat at 2 mg/kg, iv; type: ADME, organism-based; parameters: route intravenous, dose 2 mg/kg; conditions: in vivo
# [10] = AUC(0 to t) in Sprague-Dawley rat at 10 mg/kg, po; type: ADME, organism-based; parameters: dose 10 mg/kg; conditions: in vivo
# [11] = AUC(0 to t) in dog at 1 mg/kg, iv; type: ADME, organism-based, Canis lupus familiaris; parameters: dose 1 mg/kg; conditions: in vivo
# [12] = Cmax in cynomolgus monkey at 10 mg/kg, iv; type: ADME, organism-based, Macaca fascicularis; parameters: route intravenous, dose 10 mg/kg; conditions: in vivo
# [13] = AUC(0 to t) in cynomolgus monkey at 10 mg/kg, iv; type: ADME, organism-based, Macaca fascicularis; parameters: dose 10 mg/kg; conditions: in vivo
# Cryptococcus neoformans [14] = assay: Fungicidal activity against Cryptococcus neoformans H99 at 2 times of MIC after 12 hrs by time-kill kinetics assay; type: functional, organism-based
# [15] = system: Trichophyton mentagrophytes; assay: Fungicidal activity against Trichophyton mentagrophytes KCCM60449 at 4 ug/ml by time-kill kinetics assay; type: functional, organism-based; conditions: dose 4.0 µg/ml
# [16] = system: Trichophyton mentagrophytes; assay: Fungicidal activity against Trichophyton mentagrophytes KCCM60449 at 4 times after 2 hrs by time-kill kinetics assay; type: functional, organism-based
# Cryptococcus neoformans [17] = assay: Additive antifungal activity against Cryptococcus neoformans H99 assessed as FICI in presence of 5-FC after 48 hrs by checker board assay; type: functional, organism-based
# Cryptococcus neoformans [18] = assay: Additive antifungal activity against Cryptococcus neoformans H99 assessed as FICI in presence of FCZ after 48 hrs by checker board assay; type: functional, organism-based
# Aspergillus fumigatus [19] = assay: Synergistic antifungal activity against Aspergillus fumigatus AF293 assessed as FICI in presence of AmB after 48 hrs by checker board assay; type: functional, organism-based
# Aspergillus fumigatus [20] = assay: Synergistic antifungal activity against Aspergillus fumigatus AF293 assessed as FICI in presence of ICZ after 48 hrs by checker board assay; type: functional, organism-based
# Candida albicans [21] = assay: Synergistic antifungal activity against Candida albicans ATCC SC5314 assessed as FICI in presence of AmB after 48 hrs by checker board assay; type: functional, organism-based
# Nakaseomyces glabratus [22] = assay: Synergistic antifungal activity against Candida glabrata BG2 assessed as FICI in presence of AmB after 48 hrs by checker board assay; type: functional, organism-based
# [Candida] auris [23] = Synergistic antifungal activity against Candida auris B8841 assessed as FICI in presence of ICZ after 48 hrs by checker board assay; type: functional, organism-based; conditions: Candidozyma auris
# [Candida] auris [24] = Additive antifungal activity against Candida auris B8841 assessed as assessed as FICI in presence of CSP after 48 hrs by checker board assay; type: functional, organism-based; conditions: Candidozyma auris
# Nakaseomyces glabratus [25] = assay: Induction of drug resistant in Candida glabrata BG2 assessed as increase in compound IC50 at 8 to 12 times MIC; type: functional, organism-based
# Cryptococcus neoformans [26] = assay: Induction of morphological changes in Cryptococcus neoformans H99 assessed as cell wall damage at 4 to 8 ug/ml incubated for 24 hrs by TEM analysis; type: functional, organism-based; conditions: dose 4-8 µg/ml
# Cryptococcus neoformans [27] = assay: Induction of morphological changes in Cryptococcus neoformans H99 assessed as reduction in capsule thickness at 4 ug/ml incubated for 24 hrs by TEM analysis; type: functional, organism-based; conditions: dose 4.0 µg/ml
# Candida albicans [28] = assay: Induction of morphological changes in Candida albicans ATCC SC5314 assessed as reduction in cell wall thickness at 32 ug/ml incubated for 24 hrs by TEM analysis; type: functional, organism-based; conditions: dose 32.0 µg/ml
# Candida albicans [29] = assay: Induction of morphological changes in Candida albicans ATCC SC5314 assessed as appearance of detached cytoplasm at 32 ug/ml incubated for 24 hrs by TEM analysis; type: functional, organism-based; conditions: dose 32.0 µg/ml
# [30] = Effect on cell wall integrity in Cryptococcus neoformans H99 assessed as activation of Mpk1 by measuring increase in Mpk1 phosphorylation ratio at 8 ug/ml after 30 mins by immunoblot analysis (reference value: 1); type: functional; conditions: dose 8 µg/ml, 0.5 h
# [31] = Effect on cell wall integrity in Cryptococcus neoformans H99 assessed as activation of Mpk1 by measuring increase in Mpk1 phosphorylation ratio at 8 ug/ml after 60 mins by immunoblot analysis (reference value: 1); type: functional; conditions: dose 8 µg/ml, 1 h
# [32] = Effect on cell wall integrity in Cryptococcus neoformans H99 assessed as increase in HXL1 activation ratio at 8 ug/ml after 2 hrs by immunoblot analysis (reference value: 1); type: functional; conditions: dose 8 µg/ml
# Trichophyton rubrum [33] = assay: Ex vivo antifungal activity against Trichophyton rubrum KCCM60450 infected in human nail assessed as reduction in ATP level at 0.1 % w/w after 24 hrs; type: functional; parameters: scale not given: the % may be the effect or the level left
# Trichophyton rubrum [34] = assay: Ex vivo antifungal activity against Trichophyton rubrum KCCM60450 infected in human nail assessed as reduction in ATP level at 1 % w/w after 24 hrs; type: functional; parameters: scale not given: the % may be the effect or the level left
# Trichophyton rubrum [35] = assay: Ex vivo antifungal activity against Trichophyton rubrum KCCM60450 infected in human nail assessed as reduction in ATP level at 5 % w/w after 24 hrs; type: functional; parameters: scale not given: the % may be the effect or the level left
# [36] = Toxicity in po dosed Sprague-Dawley rat assessed as lethal dose measured after 14 days; type: organism-based; conditions: in vivo, 336 h, time 14 day
# Cytochrome P450 2D6, sequence (P10635 whole entry): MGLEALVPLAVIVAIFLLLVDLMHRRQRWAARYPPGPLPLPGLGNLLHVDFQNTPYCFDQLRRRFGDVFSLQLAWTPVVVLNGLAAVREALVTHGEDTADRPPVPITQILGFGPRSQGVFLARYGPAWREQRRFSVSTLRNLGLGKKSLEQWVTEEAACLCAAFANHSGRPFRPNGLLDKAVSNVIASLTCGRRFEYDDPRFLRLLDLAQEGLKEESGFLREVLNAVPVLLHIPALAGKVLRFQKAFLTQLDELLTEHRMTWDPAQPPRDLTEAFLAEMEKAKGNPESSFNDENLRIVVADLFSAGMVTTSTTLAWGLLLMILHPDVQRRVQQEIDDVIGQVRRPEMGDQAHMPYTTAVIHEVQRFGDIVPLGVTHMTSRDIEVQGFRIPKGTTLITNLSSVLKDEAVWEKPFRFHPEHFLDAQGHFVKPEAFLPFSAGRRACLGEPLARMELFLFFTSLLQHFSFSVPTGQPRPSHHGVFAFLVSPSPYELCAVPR
# Cytochrome P450 2C19, sequence (P33261 whole entry): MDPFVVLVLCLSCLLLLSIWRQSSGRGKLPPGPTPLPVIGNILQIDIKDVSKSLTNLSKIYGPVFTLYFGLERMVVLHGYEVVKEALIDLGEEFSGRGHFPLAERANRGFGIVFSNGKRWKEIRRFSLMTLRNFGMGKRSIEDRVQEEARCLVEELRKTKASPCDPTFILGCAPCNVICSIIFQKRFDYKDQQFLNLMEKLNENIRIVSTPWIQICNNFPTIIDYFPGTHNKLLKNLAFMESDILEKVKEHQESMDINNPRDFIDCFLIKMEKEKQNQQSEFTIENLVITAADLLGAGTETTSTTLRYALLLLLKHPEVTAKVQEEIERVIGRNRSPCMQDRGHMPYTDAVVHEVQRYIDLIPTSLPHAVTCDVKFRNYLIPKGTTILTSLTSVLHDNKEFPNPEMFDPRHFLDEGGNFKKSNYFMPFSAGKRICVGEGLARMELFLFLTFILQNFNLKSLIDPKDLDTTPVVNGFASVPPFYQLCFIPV
smiles,measurement,setting,value
CCCC(N)C(=O)NCCc1ccc(-c2ccc(Cl)c(Cl)c2)cc1.Cl (racemic),Activity,Cryptococcus neoformans [1],Active
same,MIC,Candida albicans [2],2 mg/L
same,MIC,Nakaseomyces glabratus [3],4 mg/L
same,MIC,Aspergillus fumigatus [4],4 mg/L
same,inhibition (INH),Cytochrome P450 2D6,88.7%
same,inhibition (INH),Cytochrome P450 2C19,86%
same,remaining at 0.5 h,[5],72.3%
same,Papp,[6],589 nm/s
same,remaining at 1 h,[7],36.2%
same,remaining at 1 h,[8],64.6%
same,Activity,HEK293,Non-Toxic
same,Cmax,[9],0.191 µg/mL
same,AUC(0-t),[10],0.527 µg·h/mL
same,AUC(0-t),[11],2.68 µg·h/mL
same,Cmax,[12],1.08 µg/mL
same,AUC(0-t),[13],7.15 µg·h/mL
same,Activity,Cryptococcus neoformans [14],Active
same,Activity,[15],Active
same,Activity,[16],Active
same,Activity,Cryptococcus neoformans [17],Active
same,Activity,Cryptococcus neoformans [18],Active
same,Activity,Aspergillus fumigatus [19],Active
same,Activity,Aspergillus fumigatus [20],Active
same,Activity,Candida albicans [21],Active
same,Activity,Nakaseomyces glabratus [22],Active
same,Activity,[Candida] auris [23],inactive
same,Activity,[Candida] auris [24],Active
same,Activity,Nakaseomyces glabratus [25],inactive
same,Activity,Cryptococcus neoformans [26],Active
same,Activity,Cryptococcus neoformans [27],Active
same,Activity,Candida albicans [28],Active
same,Activity,Candida albicans [29],Active
same,Ratio,[30],2.67
same,Ratio,[31],3.62
same,Ratio,[32],1.57
same,Activity,Trichophyton rubrum [33],73.02%
same,Activity,Trichophyton rubrum [34],24.68%
same,Activity,Trichophyton rubrum [35],19.92%
same,Activity,[36],2000 mg/kg

# Reference: ChEMBL document CHEMBL5030558, “Optimization and Evaluation of Novel Antifungal Agents for the Treatment of Fungal Infection” (J Med Chem, 2021)
